Test results reported in patent US11066447B2, “Aureobasidium derivatives and methods of synthesis” (AureoGen Biosciences, Inc., priority 2016, dated 2021).
Values after ≈ are worked out from the molar mass of the structure shown. Like-named read-outs stand apart in the source and are kept apart here. Numbered stars: 1 amine (or outer) side, 2 acyl side, 3 side chain; on linkers, the order of the positions; unused ones are H or OH. Square brackets hold non-standard residues; d marks the D form. Peptide text beside a SMILES is read from it. X26 = CC1CCN(c2cnc(-c3cccc(C[C@@H](C(=O)[*:2])N(C)[*:1])c3)cn2)CC1; X20 = CN([C@@H](Cc1cccc(-c2cnn(C3CCCC3)c2)c1)C(=O)[*:2])[*:1]; X16 = CC(C)c1cc(-c2cccc(C[C@@H](C(=O)[*:2])N(C)[*:1])c2)ccn1; X25 = CN([C@@H](Cc1cccc(-c2ccc3cccnc3c2)c1)C(=O)[*:2])[*:1]; X27 = CN([C@@H](Cc1cccc(-c2cccc3ccccc23)c1)C(=O)[*:2])[*:1]; Hmp(2R,3S) = CC[C@H](C)[C@@H](O)C(=O)O; NMeVal(β-OH) = CN[C@H](C(=O)O)C(C)(C)O; NMeV = CN[C@H](C(=O)O)C(C)C

Tests used:
[1] = test system: C. neoformans MMX 0634 ATCC 90112; assay: MIC assay (CLSI microdilution); assay type: cell-based; conditions: Cryptococcus neoformans, ATCC90112, RPMI plus 0.002% Tween-80; read-out: MIC
Experimental: (§1) Aureobasidin and test compounds (i.e., AbA derivatives of the present invention) were received from Kalexsyn, Inc. (Kalamazoo, Mich.) as powder and were stored at 4° C. until the day of assay. […] amphotericin was obtained from Sigma Aldrich and stored under like conditions. […] Ethanol (95%) was used as a solvent and diluent for all AbA compounds. Amphotericin B was tested from 0.06-64 μg/mL. Amphotericin B (Sigma Aldrich; St. Louis, Mo.; Cat No. A9528-100MG, Lot No. 120M4087) was dissolved and diluted with dimethylsulfoxide (DMSO; Sigma Aldrich; St. Louis, Mo.; Cat No. 472301 Lot No. SHBD2072V).
(§2) The solvents were added to the test agents and the stock solutions stood for approximately 1 hr at room temperature prior to use to auto sterilize. Stock solutions were prepared at 40× the desired top concentration in the test plate.
(§3) All of the test isolates were originally received from either the American Type Culture Collection (ATCC), clinical labs, or directly from Aureogen Biosciences. Organisms stored by Micromyx were cultured on agar medium appropriate to each organism. Colonies were picked by swab from the isolation plates and put into suspension in appropriate broth containing cryoprotectant. The suspensions were aliquoted into cryogenic vials and maintained at −80° C.
(§4) Prior to testing, Candida isolates were streaked from the frozen vials on Sabouraud dextrose agar. The yeast isolates were incubated for 48 hours at 35° C. before use. The fungal isolates were obtained from enumerated fungal stocks previously prepared at Micromyx and stored in phosphate buffered saline at 4° C.
(§5) Test Media. The medium employed for the MIC assay was RPMI-1640 medium from HyClone Laboratories (Logan, Utah; Lot No. AYB60287A). The medium was prepared according to Clinical and Laboratory Standards Institute (CLSI) guidelines (1, 2), and modified to include 0.002% Tween-80. Candida parapsilosis ATCC 22019 (MMX 2323) and Aspergillus fumigatus ATCC MYA-3626 (MMX 5280) were also tested without Tween-80 to provide data for the quality control of amphotericin B in accordance with CLSI (3) and to assess the effect of Tween-80 on the activity of the test agents.
(§6) Test Procedure. The MIC assay method followed the procedure described by CLSI (1, 2) and employed automated liquid handlers to conduct serial dilutions and liquid transfers. Automated liquid handlers included the Multidrop 384 (Labsystems, Helsinki, Finland), Biomek 2000 and Biomek FX (Beckman Coulter, Fullerton Calif.). The wells in columns 2-12 in standard 96-well microdilution plates (Costar 3795) were filled with 150 μl of the appropriate diluent (95% EtOH for investigational compounds, 100% DMSO for amphotericin B). These assay plates would become the ‘mother plates’ from which the assay ‘daughter plates’ would be prepared. The drugs (300 μL at 40× the desired top concentration in the test plates) were dispensed into the appropriate well in Column 1 of the mother plates. The Biomek 2000 was used to make two-fold serial dilutions through Column 11 in the “mother plate”. The wells of Column 12 contained no drug and served as the organism growth control wells.
(§7) The daughter plates were loaded with 185 μL per well on the Multidrop 384 with RPMI plus 0.002% Tween-80 or RPMI containing no Tween-80 for the testing of the two QC isolates. The daughter plates were prepared on the Biomek FX instrument which transferred 5 μL of drug solution from each well of a mother plate to each corresponding well of each daughter plate in a single step.
(§8) A standardized inoculum of each organism was prepared per CLSI methods (1, 2). For the Candida isolates, colonies were picked from the streak plate and a suspension was prepared in RPMI to equal a 0.5 McFarland standard. This suspension was diluted 1:100 in RPMI resulting in a final concentration of approximately 0.5-2.5×10^3 CFU/mL. […]

[2] = test system: C. albicans MMX 2000 ATCC 10231; assay: MIC assay (CLSI microdilution); assay type: cell-based; conditions: Candida albicans, ATCC10231, RPMI plus 0.002% Tween-80; read-out: MIC
Experimental: as §1, §2, §3, §4, §5, §6, §7, §8

[3] = test system: A. flavus MMX 5948; assay: MIC/MEC assay (CLSI microdilution); assay type: cell-based; conditions: Aspergillus flavus, MMX5948, 48 h; for minimal effective concentration: RPMI plus 0.002% Tween-80; for MIC: RPMI plus 0.002% Tween-80, read-out: MIC
Experimental: as §1, §2, §3, §4, §5, §6, §7, §8

[4] = test system: A. niger MMX 0624 ATCC 16888; assay: MIC/MEC assay (CLSI microdilution); assay type: cell-based; conditions: Aspergillus niger, ATCC16888, 48 h; for minimal effective concentration: RPMI plus 0.002% Tween-80, read-out: MEC; for MIC: RPMI plus 0.002% Tween-80, read-out: MIC
Experimental: as §1, §2, §3, §4, §5, §6, §7, §8

[5] = test system: A. fumigatus MMX 6781 ATCC MYA-4609; assay: MIC/MEC assay (CLSI microdilution); assay type: cell-based
Experimental: as §1, §2, §3, §4, §5, §6, §7, §8

[6] = test system: A. fumigatus MMX 6782 ATCC 13073; assay: MIC/MEC assay (CLSI microdilution); assay type: cell-based; conditions: Aspergillus fumigatus, ATCC13073, 48 h; for minimal effective concentration: RPMI plus 0.002% Tween-80, read-out: MEC; for MIC: RPMI plus 0.002% Tween-80, read-out: MIC
Experimental: as §1, §2, §3, §4, §5, §6, §7, §8

[7] = test system: A. fumigatus MMX 5944; assay: MIC/MEC assay (CLSI microdilution); assay type: cell-based; conditions: Aspergillus fumigatus, MMX5944, 48 h; for minimal effective concentration: RPMI plus 0.002% Tween-80; for MIC: RPMI plus 0.002% Tween-80, read-out: MIC
Experimental: as §1, §2, §3, §4, §5, §6, §7, §8

[8] = test system: C. parapsilosis MMX 2323 ATCC 22019; assay: MIC assay (CLSI microdilution); assay type: cell-based, Candida parapsilosis; conditions: read-out: MIC
Experimental: as §1, §2, §3, §4, §5, §6, §7, §8

[9] = test system: A. fumigatus MMX 5280 ATCC MYA-3626; assay: MIC/MEC assay (CLSI microdilution); assay type: cell-based, Aspergillus fumigatus; conditions: for minimal effective concentration / MIC: Aspergillus fumigatus, 48 h
Experimental: as §1, §2, §3, §4, §5, §6, §7, §8

[10] = test system: A. fumigatus from Aureogen; assay: MIC/MEC assay (CLSI microdilution); assay type: cell-based; conditions: Aspergillus fumigatus, 48 h; for minimal effective concentration: RPMI plus 0.002% Tween-80; for MIC: RPMI plus 0.002% Tween-80, read-out: MIC
Experimental: as §1, §2, §3, §4, §5, §6, §7, §8

[11] = Aspergillus fumigatus, 48 h, RPMI plus 0.002% Tween-80, read-out: MIC
[12] = Aspergillus fumigatus, RPMI plus 0.002% Tween-80, 48 hr
[13] = ATCC22019, RPMI plus 0.002% Tween-80
[14] = RPMI plus 0.002% Tween-80, read-out: MEC
[15] = RPMI plus 0.002% Tween-80, read-out: MIC
[16] = Without Tween-80, read-out: MEC
[17] = Without Tween-80, read-out: MIC
[18] = RPMI plus 0.002% Tween-80, 48 hr

Compound	MIC [1] [µg/mL]	MIC [2] [µg/mL]	minimal effective concentration [3] [µg/mL]	MIC [3] [µg/mL]	minimal effective concentration [4] [µg/mL]	MIC [4] [µg/mL]	MIC [5, 11] [µg/mL]	minimal effective concentration [5, 12] [µg/mL]	minimal effective concentration [6] [µg/mL]	MIC [6] [µg/mL]	minimal effective concentration [7] [µg/mL]	MIC [7] [µg/mL]	MIC [8, 13] [µg/mL]	MIC ([8]; ATCC22019, Without Tween-80) [µg/mL]	minimal effective concentration [9, 14] [µg/mL]	MIC [9, 15] [µg/mL]	minimal effective concentration [9, 16] [µg/mL]	MIC [9, 17] [µg/mL]	minimal effective concentration [10] [µg/mL]	MIC [10] [µg/mL]	other results
CC[C@H](C)[C@@H]1NC(=O)[C@@H]2CCCN2C(=O)[C@H](Cc2cccc(-c3cccc4ccccc34)c2)N(C)C(=O)[C@H](Cc2ccccc2)NC(=O)[C@H](C(C)C)N(C)C(=O)[C@@H]([C@@H](C)CC)OC(=O)[C@H](C(C)(C)O)N(C)C(=O)[C@H](CC(C)C)NC(=O)[C@H](C(C)C)N(C)C1=O [Compound 9] (cyclo(F[X27]PI[NMeV]L[NMeVal(β-OH)][Hmp(2R,3S)][NMeV]))	0.12	0.12	> 64	> 64	0.25	0.25	> 64	1	1	> 64	> 64	> 64	0.25	1 (≈ 0.815 µM)	> 64	> 64	> 64	> 64	–	–	–
CC[C@H](C)[C@@H]1NC(=O)[C@@H]2CCCN2C(=O)[C@H](Cc2cccc(-c3ccc4cccnc4c3)c2)N(C)C(=O)[C@H](Cc2ccccc2)NC(=O)[C@H](C(C)C)N(C)C(=O)[C@@H]([C@@H](C)CC)OC(=O)[C@H](C(C)(C)O)N(C)C(=O)[C@H](CC(C)C)NC(=O)[C@H](C(C)C)N(C)C1=O [Compound 10] (cyclo(F[X25]PI[NMeV]L[NMeVal(β-OH)][Hmp(2R,3S)][NMeV]))	0.12	0.03	0.5	1	0.06	0.06	1	0.25	0.25	1	0.12	0.5	0.12	1 (≈ 0.814 µM)	0.25	1	–	2 (≈ 1.63 µM)	0.25	1	MEC ([9]; Without Tween-80, 48 hr): 1 µg/mL
CC[C@H](C)[C@@H]1NC(=O)[C@@H]2CCCN2C(=O)[C@H](Cc2cccc(-c3cnc(N4CCC(C)CC4)cn3)c2)N(C)C(=O)[C@H](Cc2ccccc2)NC(=O)[C@H](C(C)C)N(C)C(=O)[C@@H]([C@@H](C)CC)OC(=O)[C@H](C(C)(C)O)N(C)C(=O)[C@H](CC(C)C)NC(=O)[C@H](C(C)C)N(C)C1=O [Compound 11] (cyclo(F[X26]PI[NMeV]L[NMeVal(β-OH)][Hmp(2R,3S)][NMeV]))	0.25	0.06	1	> 64	0.5	0.5	–	–	0.5	> 64	2	> 64	0.25	1 (≈ 0.783 µM)	8	> 64	4	> 64	2	> 64	MEC [5, 18]: 8 µg/mL; MIC [5, 18]: 64 µg/mL
CC[C@H](C)[C@@H]1NC(=O)[C@@H]2CCCN2C(=O)[C@H](Cc2cccc(-c3cnn(C4CCCC4)c3)c2)N(C)C(=O)[C@H](Cc2ccccc2)NC(=O)[C@H](C(C)C)N(C)C(=O)[C@@H]([C@@H](C)CC)OC(=O)[C@H](C(C)(C)O)N(C)C(=O)[C@H](CC(C)C)NC(=O)[C@H](C(C)C)N(C)C1=O [Compound 12] (cyclo(F[X20]PI[NMeV]L[NMeVal(β-OH)][Hmp(2R,3S)][NMeV]))	0.5	0.03	> 64	> 64	> 64	> 64	> 64	> 64	> 64	> 64	> 64	> 64	0.12	1 (≈ 0.809 µM)	> 64	> 64	> 64	> 64	> 64	> 64	–
CC[C@H](C)[C@@H]1NC(=O)[C@@H]2CCCN2C(=O)[C@H](Cc2cccc(-c3ccnc(C(C)C)c3)c2)N(C)C(=O)[C@H](Cc2ccccc2)NC(=O)[C@H](C(C)C)N(C)C(=O)[C@@H]([C@@H](C)CC)OC(=O)[C@H](C(C)(C)O)N(C)C(=O)[C@H](CC(C)C)NC(=O)[C@H](C(C)C)N(C)C1=O [Compound 16] (cyclo(F[X16]PI[NMeV]L[NMeVal(β-OH)][Hmp(2R,3S)][NMeV]))	0.12	0.03	0.5	1	0.5	0.5	> 64	2	1	> 64	2	> 64	0.12	1 (≈ 0.819 µM)	2	> 64	2	> 64	2	> 64	–
